Key:
Test in all cases: Recombinant HDAC activity assay
Type in all cases: biochemical
recombinant HDAC4 = recombinant HDAC4 (Homo sapiens, UniProt P56524); conditions: 2 h, read-out: % HDAC activity, Class IIa HDACs, 4
recombinant HDAC6 = target: T1, recombinant HDAC6 (Homo sapiens, UniProt Q9UBN7); conditions: 2 h, read-out: % HDAC activity, Class IIb HDACs, 6
T1 sequence (Q9UBN7 1-1215): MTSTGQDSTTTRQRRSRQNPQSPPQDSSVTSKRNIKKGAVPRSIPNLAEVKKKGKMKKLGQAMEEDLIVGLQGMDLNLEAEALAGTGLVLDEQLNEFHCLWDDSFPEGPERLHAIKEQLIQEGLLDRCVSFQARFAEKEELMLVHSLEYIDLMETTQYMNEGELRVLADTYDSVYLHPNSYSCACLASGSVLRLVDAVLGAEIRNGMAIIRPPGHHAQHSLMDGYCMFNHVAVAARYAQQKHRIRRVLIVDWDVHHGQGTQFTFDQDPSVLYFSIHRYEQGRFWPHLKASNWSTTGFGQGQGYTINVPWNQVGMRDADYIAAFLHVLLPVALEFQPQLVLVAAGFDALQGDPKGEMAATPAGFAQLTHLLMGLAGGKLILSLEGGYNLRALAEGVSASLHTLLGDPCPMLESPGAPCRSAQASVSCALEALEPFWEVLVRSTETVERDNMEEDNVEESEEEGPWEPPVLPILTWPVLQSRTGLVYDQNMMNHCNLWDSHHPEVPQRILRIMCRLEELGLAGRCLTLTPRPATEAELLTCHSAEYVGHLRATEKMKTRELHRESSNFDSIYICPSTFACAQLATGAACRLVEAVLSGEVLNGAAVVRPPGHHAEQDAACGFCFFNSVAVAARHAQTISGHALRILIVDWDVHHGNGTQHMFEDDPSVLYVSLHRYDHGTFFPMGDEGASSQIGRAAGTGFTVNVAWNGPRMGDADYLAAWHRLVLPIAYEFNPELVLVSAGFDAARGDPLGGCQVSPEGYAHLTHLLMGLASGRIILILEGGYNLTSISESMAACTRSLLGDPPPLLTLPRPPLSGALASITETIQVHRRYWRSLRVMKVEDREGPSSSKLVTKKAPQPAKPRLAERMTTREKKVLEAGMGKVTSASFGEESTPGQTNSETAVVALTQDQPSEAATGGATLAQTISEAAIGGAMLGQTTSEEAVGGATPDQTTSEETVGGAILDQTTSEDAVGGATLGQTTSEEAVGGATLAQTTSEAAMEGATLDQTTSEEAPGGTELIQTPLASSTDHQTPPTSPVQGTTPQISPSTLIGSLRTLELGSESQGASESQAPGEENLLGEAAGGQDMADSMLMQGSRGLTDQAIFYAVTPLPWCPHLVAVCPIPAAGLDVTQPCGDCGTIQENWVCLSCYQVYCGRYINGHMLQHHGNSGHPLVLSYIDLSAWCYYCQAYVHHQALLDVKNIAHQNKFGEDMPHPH

recombinant HDAC10 = target: T2, recombinant HDAC10 (Homo sapiens, UniProt Q969S8); conditions: 2 h, read-out: % HDAC activity, Class IIb HDACs, 10
T2 sequence (Q969S8 1-669): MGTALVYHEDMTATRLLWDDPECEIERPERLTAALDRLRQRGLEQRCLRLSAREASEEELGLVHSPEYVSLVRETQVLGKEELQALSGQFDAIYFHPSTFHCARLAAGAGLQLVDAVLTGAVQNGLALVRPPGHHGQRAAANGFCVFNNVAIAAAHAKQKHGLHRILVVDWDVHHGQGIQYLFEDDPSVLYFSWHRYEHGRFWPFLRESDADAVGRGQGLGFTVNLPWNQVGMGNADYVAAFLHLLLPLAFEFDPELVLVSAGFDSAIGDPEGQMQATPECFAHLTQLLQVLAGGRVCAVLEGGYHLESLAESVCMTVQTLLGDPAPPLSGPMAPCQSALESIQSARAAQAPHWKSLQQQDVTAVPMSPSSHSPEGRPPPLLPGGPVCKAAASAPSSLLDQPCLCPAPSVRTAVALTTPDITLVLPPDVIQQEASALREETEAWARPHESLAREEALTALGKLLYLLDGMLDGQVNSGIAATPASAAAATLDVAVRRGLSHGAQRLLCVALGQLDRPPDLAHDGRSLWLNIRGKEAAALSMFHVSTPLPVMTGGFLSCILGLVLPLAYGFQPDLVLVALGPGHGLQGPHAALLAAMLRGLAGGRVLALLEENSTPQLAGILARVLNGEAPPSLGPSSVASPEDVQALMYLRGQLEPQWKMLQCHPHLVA

Chain of recombinant HDAC4 (P56524 whole entry): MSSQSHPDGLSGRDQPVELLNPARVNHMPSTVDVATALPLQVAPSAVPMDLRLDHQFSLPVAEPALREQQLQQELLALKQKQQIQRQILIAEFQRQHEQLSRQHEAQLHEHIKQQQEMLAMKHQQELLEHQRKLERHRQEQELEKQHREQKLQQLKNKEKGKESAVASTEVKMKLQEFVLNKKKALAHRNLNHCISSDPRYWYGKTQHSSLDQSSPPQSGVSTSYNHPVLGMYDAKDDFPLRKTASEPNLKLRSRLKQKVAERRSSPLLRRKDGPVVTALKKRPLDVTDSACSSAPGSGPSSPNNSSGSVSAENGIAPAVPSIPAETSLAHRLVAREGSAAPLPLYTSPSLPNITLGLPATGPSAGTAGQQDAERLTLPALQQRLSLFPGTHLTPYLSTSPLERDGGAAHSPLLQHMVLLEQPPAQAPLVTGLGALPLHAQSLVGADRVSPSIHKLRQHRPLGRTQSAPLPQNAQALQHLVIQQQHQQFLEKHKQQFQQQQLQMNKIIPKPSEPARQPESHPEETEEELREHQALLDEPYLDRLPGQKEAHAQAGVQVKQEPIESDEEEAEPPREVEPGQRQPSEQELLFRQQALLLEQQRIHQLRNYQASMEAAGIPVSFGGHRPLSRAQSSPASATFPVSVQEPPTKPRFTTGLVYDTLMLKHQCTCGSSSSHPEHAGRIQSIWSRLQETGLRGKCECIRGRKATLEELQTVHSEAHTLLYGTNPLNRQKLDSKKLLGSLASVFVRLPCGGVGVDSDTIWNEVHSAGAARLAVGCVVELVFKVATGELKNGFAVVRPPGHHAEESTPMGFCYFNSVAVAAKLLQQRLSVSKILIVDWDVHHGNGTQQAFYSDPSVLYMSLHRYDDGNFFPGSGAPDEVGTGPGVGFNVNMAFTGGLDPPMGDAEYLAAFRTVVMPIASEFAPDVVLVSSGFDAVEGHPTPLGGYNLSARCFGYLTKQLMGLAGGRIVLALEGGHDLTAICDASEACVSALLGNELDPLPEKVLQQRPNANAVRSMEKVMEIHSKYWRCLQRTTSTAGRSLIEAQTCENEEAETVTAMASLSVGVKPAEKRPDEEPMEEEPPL

Cc1cc(O)c2c(c1)C(=O)c1cc(O)cc(O)c1C2=O [Emodin]
remaining activity at 50 µM (recombinant HDAC4): 92.8% | remaining activity at 50 µM (recombinant HDAC6): 38.8% | remaining activity at 50 µM (recombinant HDAC10): 35.8%
